Values of other authors as cited in patent US20140328789A1, “pH-RESPONSIVE CELL SCAFFOLD AND METHOD OF USING SAME” (Research Foundation of the City University of New York, priority 2013, published 2014).
One block for each molecule: values may come before it.

Settings: for pKa1 Monomer: first pKa; for pKa2 Monomer: second pKa; for pKa3 Monomer: third pKa; for pKa: cross-linking agent

pKa1 Monomer: 2.2
pKa2 Monomer: 4.25
pKa3 Monomer: pKa3 = 9.67
Molecule: N[C@@H](CCC(=O)O)C(=O)O [glutamic acid]

pKa Monomer: pKa = 8.8
Molecule: C=C(C)C(=O)OCCN [aminoethyl methacrylate (AEMA), aminoethyl methacrylate]

pKa Monomer: pKa = 7.3
Molecule: C=C(C)C(=O)OCCN(CC)CC [2-diethylaminoethyl methacrylate]

pKa: pKa = 4.65
Molecule: C=C(C)C(=O)OC(=O)C(=C)C [Methacrylic anhydride]

pKa Monomer: pKa = 5.5
Molecule: C=C(C)C(=O)OC1CC(C)(C)N([O])C(C)(C)C1 [TEMPO methacrylate]

pKa: pKa = 4.61
Molecule: C/C=C/C(=O)OC(=O)/C=C/C [Crotonic anhydride]

Second part, the molecule before the results:

Molecule: NCCCC[C@H](N)C(=O)O [lysine]
pKa1 Monomer: 2.2
pKa2 Monomer: 9.0
pKa3 Monomer: pKa3 = 10.5

Molecule: C=C(C)C(=O)OCCN(C)C [N,N-Dimethylaminoethyl Methacrylate]
pKa Monomer: pKa = 7.3-7.5

Molecule: C=CC(=O)NC(C)C [N-isopropylacrylamide (NIPAM), N-isopropylacrylamide]
pKa Monomer: pKa ≈ 6

Molecule: C=C(CC(=O)O)C(=O)O [itaconic acid]
pKa Monomer: pKa = 4.5

Molecule: C=C(C)C(=O)OCCOP(=O)([O-])OCC[N+](C)(C)C [2-methacryloyloxyethyl phosphorylcholine]
pKa1 Monomer: pKa1 = 1.9

Molecule: albumin
pKa Monomer: pKa = 7.4
